In assay [1] the target is T1, human M2 receptor (human Muscarinic receptor subtype 2) (Homo sapiens, UniProt P08172).
T1 construct: purchased Perkin-Elmer RBHM2M; host or cells: membranes from CHO cells expressing the cloned receptor
T1 sequence (P08172 1-466): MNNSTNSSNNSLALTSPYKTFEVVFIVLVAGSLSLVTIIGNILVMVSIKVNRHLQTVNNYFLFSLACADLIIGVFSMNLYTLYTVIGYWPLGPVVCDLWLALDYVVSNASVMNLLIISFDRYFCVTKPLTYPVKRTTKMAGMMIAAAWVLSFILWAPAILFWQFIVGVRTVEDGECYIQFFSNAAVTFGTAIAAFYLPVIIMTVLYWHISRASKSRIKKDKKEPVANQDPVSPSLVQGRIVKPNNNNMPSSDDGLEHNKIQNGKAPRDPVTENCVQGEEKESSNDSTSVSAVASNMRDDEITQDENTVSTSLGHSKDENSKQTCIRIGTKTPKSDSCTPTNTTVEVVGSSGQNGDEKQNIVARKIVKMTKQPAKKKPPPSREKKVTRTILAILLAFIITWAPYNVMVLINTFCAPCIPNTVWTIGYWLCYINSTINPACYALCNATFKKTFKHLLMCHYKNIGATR
Description: hM2 receptor GTPγS binding. It is filed as biochemical. Conditions: CHO membranes, [35S]GTPγS binding. As for the experimental part:
Membranes produced from Chinese hamster ovary cells (CHO) expressing the cloned human M2 receptor (human Muscarinic receptor subtype 2, gene bank access NM_000739), are obtained from Perkin-Elmer (RBHM2M). The membranes are thawed at 37° C., passed 3 times through a 23-gauge blunt-end needle, diluted in the GTPγS binding buffer (50 mM Hepes, 20 mM NaOH, 100 mM NaCl, 1 mM EDTA, 5 mM MgCl2, pH 7.4, 100 μM DTT). The EC50, IC50 and Emax of the compounds of the invention are evaluated from 10-point dose-response curves (three fold concentration range) done in 60 μl in 384-well non-specific binding surface plate (Corning). Ten microliters from the dose-response curves plate (5× concentration) are transferred to another 384 well plate containing 25 μl of the following: 5 μg of hM2 membranes, 500 μg of Flashblue beads (Perkin-Elmer) and GDP 25 μM. An additional 15 μl containing 3.3× (60,000 dpm) of GTPγ^35S (0.4 nM final) are added to the wells resulting in a total well volume of 50 μl. Basal and maximal stimulated [^35S]GTPγS binding are determined in absence and presence of 30 μM final of acetylcholine agonist. The membranes/beads mix are pre-incubated for 15 minutes at room temperature with 25 μM GDP prior to distribution in plates (12.5 μM final). The reversal of acetylcholine-induced stimulation (2 μM final) of [^35S]GTPγS binding is used to assay the antagonist properties (IC50) of the compounds. The plates are incubated for 60 minutes at room temperature then centrifuged at 400 rpm for 5 minutes. The radioactivity (cpm) is counted in a Trilux (Perkin-Elmer).
(§1) Values of EC50, IC50 and Emax are obtained using sigmoidal fits of a non-linear curve-fitting program (XLfit version 4.2.2 Excel add-in version 4.2.2 build 18 math 1Q version 2.1.2 build 18) of percent stimulated [^35S]GTPγS binding vs. log(molar ligand). All pEC50 and pIC50 values are reported as arithmetic means±standard error of mean of ‘n’ independent experiments.
Background: Binding of GTPγS marks nucleotide exchange on a G protein.

Assay [2] concerns the target T2, human M4 receptor (human Muscarinic receptor subtype 4) (Homo sapiens, UniProt P08173).
T2 construct: purchased Perkin-Elmer RBHM4M; host or cells: membranes from CHO cells expressing the cloned receptor
T2 sequence (P08173 1-479): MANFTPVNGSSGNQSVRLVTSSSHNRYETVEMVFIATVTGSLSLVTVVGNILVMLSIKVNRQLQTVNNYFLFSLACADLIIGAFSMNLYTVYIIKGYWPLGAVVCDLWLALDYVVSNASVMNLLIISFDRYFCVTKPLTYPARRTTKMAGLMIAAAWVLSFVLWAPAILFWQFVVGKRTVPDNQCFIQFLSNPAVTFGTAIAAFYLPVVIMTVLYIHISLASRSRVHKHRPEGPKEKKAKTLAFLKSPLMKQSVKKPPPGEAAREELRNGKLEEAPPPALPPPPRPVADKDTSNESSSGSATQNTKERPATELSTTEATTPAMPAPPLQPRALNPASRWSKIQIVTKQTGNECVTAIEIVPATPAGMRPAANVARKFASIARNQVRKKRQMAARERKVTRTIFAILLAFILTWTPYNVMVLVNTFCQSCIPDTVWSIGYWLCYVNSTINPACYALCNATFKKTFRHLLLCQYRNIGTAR
Description: hM4 receptor GTPγS binding. It is filed as biochemical. Conditions: CHO membranes, [35S]GTPγS binding. As for the experimental part:
Membranes produced from Chinese hamster ovary cells (CHO) expressing the cloned human M4 receptor (human Muscarinic receptor subtype 4, gene bank access NM_000741), are obtained from Perkin-Elmer (RBHM4M). The membranes are thawed at 37° C., passed 3 times through a 23-gauge blunt-end needle, diluted in the GTPγS binding buffer (50 mM Hepes, 20 mM NaOH, 100 mM NaCl, 1 mM EDTA, 5 mM MgCl2, pH 7.4, 100 μM DTT). The EC50, IC50 and Emax of the compounds of the invention are evaluated from 10-point dose-response curves (three fold concentration range) done in 60 μl in 384-well non-specific binding surface plate (Corning). Ten microliters from the dose-response curves plate (5× concentration) are transferred to another 384 well plate containing 25 μl of the following: 10 μg of hM4 membranes, 500 μg of Flashblue beads (Perkin-Elmer) and GDP 40 μM. An additional 15 μl containing 3.3× (60,000 dpm) of GTPγS (0.4 nM final) are added to the wells resulting in a total well volume of 50 μl. Basal and maximal stimulated [^35S]GTPγS binding are determined in absence and presence of 30 μM final of acetylcholine agonist. The membranes/beads mix are pre-incubated for 15 minutes at room temperature with 40 μM GDP prior to distribution in plates (20 μM final). The reversal of acetylcholine-induced stimulation (10 μM final) of [^35S]GTPγS binding is used to assay the antagonist properties (IC50) of the compounds. The plates are incubated for 60 minutes at room temperature then centrifuged at 400 rpm for 5 minutes. The radioactivity (cpm) is counted in a Trilux (Perkin-Elmer).
as §1

Broadly, the EC50 is the concentration giving half of the maximal effect. A low value points to a more potent agent. As for `CCOC(=O)N1CCC(C)(N2CCC(N3C(=O)CO[C@H]4CCCC[C@@H]43)CC2)C1` (single isomer, unassigned) [Example 18], the figures for the EC50 in assay [1] and in assay [2] were 3.7 µM and 8.97 µM, respectively.

Regarding `CCOC(=O)N1CCC(C)(N2CCC(N3C(=O)CO[C@H]4CCCC[C@@H]43)CC2)C1` (single isomer, unassigned) [Example 19], the EC50 in assay [1] is more than 40 µM; in assay [2] it was more than 30 µM.

For the compound `CCOC(=O)N1CCC(N2CCC(N3C(=O)NC[C@H]4CCCC[C@@H]43)CC2)CC1` [Example 1, Ethyl 4-[4-[(4aR,8aS)-2-oxo-3,4,4a,5,6,7,8,8a-octahydroquinazolin-1-y]-1-piperidyl]piperidine-1-carboxylate], the EC50 in assay [1] turned out to be 0.38 µM; in assay [2], 1.7 µM.

With `CC(C)OC(=O)N1CCC(N2CCC(N3C(=O)NC[C@H]4CCCC[C@@H]43)CC2)CC1` [Example 2, Propan-2-yl 4-[4-[(4aR,8aS)-2-oxo-3,4,4a,5,6,7,8,8a-octahydroquinazolin-1-yl]-1-piperidyl]piperidine-1-carboxylate], the EC50 in assay [1] is more than 1.2 µM; in assay [2] it was more than 20 µM.

Take `O=C(C1CC1)N1CCC(N2CCC(N3C(=O)NC[C@H]4CCCC[C@@H]43)CC2)CC1` [Example 3, (4aR,8aS)-1-[1-[1-(cyclopropanecarbonyl)-4-piperidyl]-4-piperidyl]-3,4,4a,5,6,7,8,8a-octahydroquinazolin-2-one]: the half-maximal effective concentration (EC50) in assay [1] was more than 12 µM; in assay [2], more than 30 µM.

Consider `Cc1ccccc1C(=O)N1CCC(N2CCC(N3C(=O)NC[C@H]4CCCC[C@@H]43)CC2)CC1` [Example 4, (4aR,8aS)-1-[1-[1-(2-methylbenzoyl)-4-piperidyl]-4-piperidyl]-3,4,4a,5,6,7,8,8a-octahydroquinazolin-2-one], for which the EC50 in assay [1] and in assay [2] was more than 30 µM in each case.

In the case of `CC(C)OC(=O)N1CCC(N2CCC(N3C(=O)N(C)C[C@H]4CCCC[C@@H]43)CC2)CC1` [Example 6, Propan-2-yl 4-[4-[(4aR,8aS)-3-methyl-2-oxo-4a,5,6,7,8,8a-hexahydro-4H-quinazolin-1-yl]-1-piperidyl]piperidine-1-carboxylate], the EC50 in assay [1] and in assay [2] was more than 30 µM each time.

Take `CCOC(=O)N1CCC(C)(N2CCC(N3C(=O)NC[C@H]4CCCC[C@@H]43)CC2)CC1` [Example 7, Ethyl 4-[4-[(4aR,8aS)-2-oxo-3,4,4a,5,6,7,8,8a-octahydroquinazolin-1-yl]-1-piperidyl]-4-methyl-piperidine-1-carboxylate]: the concentration giving a half-maximal response (EC50) in assay [1] was 0.07 µM; in assay [2] it was more than 1.6 µM.

`CC(C)OC(=O)N1CCC(C)(N2CCC(N3C(=O)NC[C@H]4CCCC[C@@H]43)CC2)CC1` [Example 8, Propan-2-yl 4-[4-[(4aR,8aS)-2-oxo-3,4,4a,5,6,7,8,8a-octahydroquinazolin-1-yl]-1-piperidyl]-4-methyl-piperidine-1-carboxylate]: the EC50 in assay [1] and in assay [2] was more than 30 µM in each case.

Turning to `CCOC(=O)N1CCC(N2CCC(N3C(=O)CO[C@H]4CCCC[C@@H]43)CC2)CC1` [Example 9, Ethyl 4-[4-[(1S,6S)-9-oxo-7-oxa-10-azabicyclo[4.4.0]dec-10-yl]-1-piperidyl]piperidine-1-carboxylate], the figures for the EC50 in assay [1] and in assay [2] were 2.5 µM and 4.3 µM, respectively.

As for `CC(C)OC(=O)N1CCC(N2CCC(N3C(=O)CO[C@H]4CCCC[C@@H]43)CC2)CC1` [Example 10, Propan-2-yl 4-[4-[(1S,6S)-9-oxo-7-oxa-10-azabicyclo[4.4.0]dec-10-yl]-1-piperidyl]piperidine-1-carboxylate], the EC50 in assay [1] is more than 6.6 µM; in assay [2] it was more than 30 µM.

Turning to `Cc1ccccc1C(=O)N1CCC(N2CCC(N3C(=O)CO[C@H]4CCCC[C@@H]43)CC2)CC1` [Example 11, (1S,6S)-10-[1-[1-(2-methylbenzoyl)-4-piperidyl]-4-piperidyl]-7-oxa-10-azabicyclo[4.4.0]decan-9-one], the concentration giving a half-maximal response (EC50) in assay [1] and in assay [2] was more than 30 µM throughout.

As to `Cn1cccc1C(=O)N1CCC(N2CCC(N3C(=O)CO[C@H]4CCCC[C@@H]43)CC2)CC1` [Example 12, (1S,6S)-10-[1-[1-(1-methylpyrrole-2-carbonyl)-4-piperidyl]-4-piperidyl]-7-oxa-10-azabicyclo[4.4.0]decan-9-one], the EC50 in assay [1] and in assay [2] was more than 30 µM in each case.

For the compound `CCOC(=O)N1CC[C@H](N2CCC(N3C(=O)CO[C@H]4CCCC[C@@H]43)CC2)C1` [Example 13, Ethyl (3S)-3-[4-[(1S,6S)-9-oxo-7-oxa-10-azabicyclo[4.4.0]dec-10-yl]-1-piperidyl]pyrrolidine-1-carboxylate], the EC50 in assay [1] and in assay [2] was more than 30 µM each time.

As for `CC(C)OC(=O)N1CCC(N2CCC(N3C(=O)CO[C@@H]4CCCC[C@H]43)CC2)CC1` [Example 14, Propan-2-yl 4-[4-[(1R,6R)-9-oxo-7-oxa-10-azabicyclo[4.4.0]dec-10yl]-1-piperidyl]piperidine-1-carboxylate], the EC50 in assay [1] and in assay [2] was more than 30 µM throughout.

As to `CCOC(=O)N1CCC(N2CCC(N3C(=O)OC[C@H]4CCCC[C@@H]43)CC2)CC1` [Example 15, Ethyl 4-[4-[(1S,6S)-9-oxo-8-oxa-10-azabicyclo[4.4.0]dec-10-yl]-1-piperidyl]piperidine-1-carboxylate], the results for the EC50 in assay [1] and in assay [2] were more than 12 µM and more than 30 µM, respectively.

These data come from patent US20090221567A1, “MUSCARINIC RECEPTOR AGONISTS, COMPOSITIONS, METHODS OF TREATMENT THEREOF, AND PROCESSES FOR PREPARATION THEREOF 177” (ASTRAZENECA AB, priority 2008, published 2009).
